# Patent US7666685B2, “Screening method for identification of compounds suitable for treatment of oral cavity malodor associated with consumption of garlic” (Wm. Wrigley Jr. Company, priority 2005, dated 2010)
# Where “and” joins values, the source holds several entries; their conditions need not be identical. Equal values may be shown once.
# What was measured:
# [1] = Sensory analysis: ten panelists rate the odor intensity of the raw macerated garlic solution with added active; conditions: for Odor Intensity (0–100): individual panelists, 0=no odor, 100=very strong odor; for Odor Intensity (0–100), Mean: mean of N = 10 panelists
# Method: Sensory analysis of the solutions utilized for analytical analyses of the raw garlic described above was conducted by ten panelists who evaluated the odor intensity of the model solution (raw macerated garlic) with and without the different levels of added active. Odor intensity was assessed utilizing a 0-100 point scale ballot with 0=no odor and 100=very strong odor.
# [2] = In vitro dose response: SPME GC/MS headspace analysis of raw macerated garlic solution treated with active; conditions: for GC/MS Peak Area (diallyl disulfide headspace): individual runs; for GC/MS Peak Area (diallyl disulfide headspace), Mean: mean of 3 runs; for reduction of diallyl disulfide headspace concentration: vs control garlic solution
# Method: A model solution containing raw chopped garlic (20 g) dispersed in water (200 ml) was prepared by blending in a Waring commercial blender (Waring Commercial, Torrington, Conn.) at low power for 30 seconds and at high power for 30 seconds. The resulting solution was homogeneous with no visible garlic particles present.
# A portion of the raw, macerated garlic solution (5 g) was treated with different levels of potential ameliorating actives and the headspace was extracted and analyzed (as described in greater detail below) to determine the effect of the potential actives on the headspace concentration of compounds contributing to oral cavity malodor associated with consumption of garlic.
# Headspace of a vessel containing a portion of the garlic solution (5 ml) treated with a potential active was extracted for 60 minutes utilizing solid phase microextraction (SPME) with a 75 μm Carboxen-polydimethyl siloxane fiber (Supelco, Bellefonte, Pa.).
# The SPME fiber assembly was injected into an Agilent 6890 gas chromatograph (GC)/mass spectrometer (MS) modified for multidimensional analyses and equipped with a sniff port and Aroma Trax software (Microanalytics, Round Rock, Tex.). Fibers remained in the GC injection port for five minutes following injection.
# The GC/MS operating parameters included a He carrier gas flow rate of 6.5 ml/min, split mode (2:1) and the injector set at 250° C. Column 1 was 12 meter, 0.53 mm I.D. with a methyl silica stationary phase. Column 2 was a 25 meter, 0.53 mm DB-5 capillary column. The oven was programmed to hold at 40° C. for 3 minutes and to heat to 220° C. at a rate of 7° C./min and hold at 220° C. for 20 minutes. The MS operated in Electron Impact Mode (E.I.) at 70 eV.
# A model solution containing raw chopped garlic dispersed in water was prepared as described in Example 1. […] For comparison purposes, the diallyl disulfide content of the headspace of a control model solution (i.e., no menthone added) was also analyzed.
molecule,measurement,setting,value
CC(C)[C@@H]1CC[C@@H](C)CC1=O [menthone],Odor Intensity (0–100),[1]; 0.33 mg/g,1 (2×) and 6 and 7 (4×) and 5 and 8 and 3
same,"Odor Intensity (0–100), Mean",[1]; 0.33 mg/g,5.2
same,Odor Intensity (0–100),[1]; 1 mg/g,1 and 2 (6×) and 4 (2×) and 6
same,"Odor Intensity (0–100), Mean",[1]; 1 mg/g,2.7
same,Odor Intensity (0–100),[1]; 3 mg/g,2 (2×) and 0 (2×) and 4 (2×) and 3 (2×) and 1 (2×)
same,"Odor Intensity (0–100), Mean",[1]; 3 mg/g,2
same,reduction of odor of raw macerated garlic in water (sensory),[1]; active concentration 0.3 mg/g,48%
same,reduction of odor of raw macerated garlic in water (sensory),[1]; active concentration 3 mg/g,80%
same,GC/MS Peak Area (diallyl disulfide headspace),[2]; 0.3 mg/g garlic solution,46610414 and 58241626 and 60764744
same,"GC/MS Peak Area (diallyl disulfide headspace), Mean",[2]; 0.3 mg/g garlic solution,55205595
same,GC/MS Peak Area (diallyl disulfide headspace),[2]; 1 mg/g garlic solution,20835556 and 16829160 and 16827232
same,"GC/MS Peak Area (diallyl disulfide headspace), Mean",[2]; 1 mg/g garlic solution,18163983
same,GC/MS Peak Area (diallyl disulfide headspace),[2]; 3 mg/g garlic solution,6746448 and 4757863 and 5868573
same,"GC/MS Peak Area (diallyl disulfide headspace), Mean",[2]; 3 mg/g garlic solution,5790961.3
same,less diallyl disulfide in headspace than control model solution,"[2]; Example 3: 1.63 mg in 2.5 g model solution, at each headspace analysis interval (5 hour intervals)",at least 50%
caryophyllene,Odor Intensity (0–100),[1]; 0.1 mg/g,5 (3×) and 6 (2×) and 2 and 4 (3×) and 7
same,"Odor Intensity (0–100), Mean",[1]; 0.1 mg/g,4.8
same,Odor Intensity (0–100),[1]; 0.2 mg/g,4 (2×) and 5 (3×) and 9 (2×) and 8 and 3 (2×)
same,"Odor Intensity (0–100), Mean",[1]; 0.2 mg/g,5.5
same,Odor Intensity (0–100),[1]; 0.4 mg/g,2 and 5 and 3 (3×) and 4 (3×) and 0 and 1
same,"Odor Intensity (0–100), Mean",[1]; 0.4 mg/g,2.9
same,decrease of odor intensity (sensory),[1]; active concentration 0.1 mg/g,52%
same,decrease of odor intensity (sensory),[1]; active concentration 0.4 mg/g,71%
same,GC/MS Peak Area (diallyl disulfide headspace),[2]; 0.1 mg/g garlic solution,52155883 and 49803124 and 56316479
same,"GC/MS Peak Area (diallyl disulfide headspace), Mean",[2]; 0.1 mg/g garlic solution,52758495
same,GC/MS Peak Area (diallyl disulfide headspace),[2]; 0.24 mg/g garlic solution,67591321 and 69400527 and 61729644
same,"GC/MS Peak Area (diallyl disulfide headspace), Mean",[2]; 0.24 mg/g garlic solution,66240497
same,GC/MS Peak Area (diallyl disulfide headspace),[2]; 0.4 mg/g garlic solution,93422075 and 91167385 and 94368797
same,"GC/MS Peak Area (diallyl disulfide headspace), Mean",[2]; 0.4 mg/g garlic solution,92986086
same,reduction of diallyl disulfide headspace concentration,[2]; active concentration 0.1 mg/g,34%
same,reduction of diallyl disulfide headspace concentration,[2]; active concentration 0.4 mg/g,63%
